Reference: PubChem BioAssay AID1963975 (Molecular Pharmacology Branch, DTP, NCI, 2024)

Test system: 624824-186-R-J2-PDC multicell spheroids, viability
Experiment: Anticancer human tumor 624824-186-R-J2-PDC patient-derived colon adenocarcinoma cell line growth inhibition [PI3K]
Conditions: for IC50: curve of first compound; for viability, T/C: stronger effect = lower value
Method in brief: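 High-throughput combination screen: PI3K inhibitors crossed with targeted small molecules on complex spheroids of tumor cells, HUVEC and MSCs at 37 degrees C, 5% CO2. Top concentration was at or near clinical Cmax (otherwise 10 microM), with half-log decrements.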

[1] = second compound 0.0316 µM, first compound 0.0316 µM
[2] = second compound 0.0316 µM, first compound 0.1 µM
[3] = second compound 0.1 µM, first compound 0.0316 µM
[4] = second compound 0.1 µM, first compound 0.1 µM
[5] = second compound 0.316 µM, first compound 0.0316 µM
[6] = second compound 0.316 µM, first compound 0.1 µM
[7] = second compound 1 µM, first compound 0.0316 µM
[8] = second compound 1 µM, first compound 0.1 µM
[9] = second compound 3.16 µM, first compound 0.0316 µM
[10] = second compound 3.16 µM, first compound 0.1 µM
[11] = second compound 10 µM, first compound 0.0316 µM
[12] = second compound 10 µM, first compound 0.1 µM
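Also: spheroids exposed to agents for 7 days before viability read.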
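For viability, T/C in this document: 100% = DMSO vehicle treated spheroids.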

C[C@@H](NC(=O)c1ncnc(N)c1Cl)c1ncc(C(=O)Nc2cc(C(F)(F)F)c(Cl)cn2)s1 + Cc1nc(NC(=O)N2CCCC2C(N)=O)sc1-c1ccnc(C(C)(C)C(F)(F)F)c1
IC50 (second compound 0.0316 µM): > 10000 nM
IC50 (second compound 0.1 µM): > 10000 nM
IC50 (second compound 0.316 µM): > 10000 nM
IC50 (second compound 1 µM): > 10000 nM
IC50 (second compound 3.16 µM): > 10000 nM
IC50 (second compound 10 µM): 1170 nM
viability, T/C [1]: 103%
viability, T/C [2]: 103%
viability, T/C (second compound 0.0316 µM, first compound 0.316 µM): 91.8%
viability, T/C (second compound 0.0316 µM, first compound 1 µM): 84.2%
viability, T/C (second compound 0.0316 µM, first compound 3.16 µM): 73.2%
viability, T/C (second compound 0.0316 µM, first compound 10 µM): 82.4%
viability, T/C [3]: 80.8%
viability, T/C [4]: 84.2%
viability, T/C (second compound 0.1 µM, first compound 0.316 µM): 85.7%
viability, T/C (second compound 0.1 µM, first compound 1 µM): 76.1%
viability, T/C (second compound 0.1 µM, first compound 3.16 µM): 84.2%
viability, T/C (second compound 0.1 µM, first compound 10 µM): 85.5%
viability, T/C [5]: 106%
viability, T/C [6]: 99.8%
viability, T/C (second compound 0.316 µM, first compound 0.316 µM): 87.7%
viability, T/C (second compound 0.316 µM, first compound 1 µM): 63.5%
viability, T/C (second compound 0.316 µM, first compound 3.16 µM): 76.2%
viability, T/C (second compound 0.316 µM, first compound 10 µM): 81.1%
viability, T/C [7]: 101%
viability, T/C [8]: 96.1%
viability, T/C (second compound 1 µM, first compound 0.316 µM): 102%
viability, T/C (second compound 1 µM, first compound 1 µM): 70.7%
viability, T/C (second compound 1 µM, first compound 3.16 µM): 68.3%
viability, T/C (second compound 1 µM, first compound 10 µM): 71.5%
viability, T/C [9]: 87.4%
viability, T/C [10]: 92.6%
viability, T/C (second compound 3.16 µM, first compound 0.316 µM): 88.8%
viability, T/C (second compound 3.16 µM, first compound 1 µM): 70.7%
viability, T/C (second compound 3.16 µM, first compound 3.16 µM): 58.1%
viability, T/C (second compound 3.16 µM, first compound 10 µM): 49.7%
viability, T/C [11]: 78%
viability, T/C [12]: 80.4%
viability, T/C (second compound 10 µM, first compound 0.316 µM): 63.4%
viability, T/C (second compound 10 µM, first compound 1 µM): 54.7%
viability, T/C (second compound 10 µM, first compound 3.16 µM): 38%
viability, T/C (second compound 10 µM, first compound 10 µM): 40.1%

Cn1ncnc1[C@H]1c2n[nH]c(=O)c3cc(F)cc(c23)N[C@@H]1c1ccc(F)cc1 + Cc1nc(NC(=O)N2CCCC2C(N)=O)sc1-c1ccnc(C(C)(C)C(F)(F)F)c1
IC50 (second compound 0.0316 µM): > 100 nM
IC50 (second compound 0.1 µM): > 100 nM
IC50 (second compound 0.316 µM): > 100 nM
IC50 (second compound 1 µM): > 100 nM
IC50 (second compound 3.16 µM): > 100 nM
IC50 (second compound 10 µM): > 100 nM
viability, T/C (second compound 0.0316 µM, first compound 0.000316 µM): 89.5%
viability, T/C (second compound 0.0316 µM, first compound 0.001 µM): 79.8%
viability, T/C (second compound 0.0316 µM, first compound 0.00316 µM): 79.5%
viability, T/C (second compound 0.0316 µM, first compound 0.01 µM): 106%
viability, T/C [1]: 89%
viability, T/C [2]: 101%
viability, T/C (second compound 0.1 µM, first compound 0.000316 µM): 91.8%
viability, T/C (second compound 0.1 µM, first compound 0.001 µM): 87.4%
viability, T/C (second compound 0.1 µM, first compound 0.00316 µM): 105%
viability, T/C (second compound 0.1 µM, first compound 0.01 µM): 80.9%
viability, T/C [3]: 70.2%
viability, T/C [4]: 86.4%
viability, T/C (second compound 0.316 µM, first compound 0.000316 µM): 95.4%
viability, T/C (second compound 0.316 µM, first compound 0.001 µM): 92.9%
viability, T/C (second compound 0.316 µM, first compound 0.00316 µM): 101%
viability, T/C (second compound 0.316 µM, first compound 0.01 µM): 88%
viability, T/C [5]: 108%
viability, T/C [6]: 80.4%
viability, T/C (second compound 1 µM, first compound 0.000316 µM): 88.3%
viability, T/C (second compound 1 µM, first compound 0.001 µM): 102%
viability, T/C (second compound 1 µM, first compound 0.00316 µM): 78.1%
viability, T/C (second compound 1 µM, first compound 0.01 µM): 97.1%
viability, T/C [7]: 101%
viability, T/C [8]: 86.3%
viability, T/C (second compound 3.16 µM, first compound 0.000316 µM): 86.8%
viability, T/C (second compound 3.16 µM, first compound 0.001 µM): 78.6%
viability, T/C (second compound 3.16 µM, first compound 0.00316 µM): 76.3%
viability, T/C (second compound 3.16 µM, first compound 0.01 µM): 82.9%
viability, T/C [9]: 92.4%
viability, T/C [10]: 82.1%
viability, T/C (second compound 10 µM, first compound 0.000316 µM): 87.5%
viability, T/C (second compound 10 µM, first compound 0.001 µM): 84.7%
viability, T/C (second compound 10 µM, first compound 0.00316 µM): 80.3%
viability, T/C (second compound 10 µM, first compound 0.01 µM): 71.8%
viability, T/C [11]: 77.3%
viability, T/C [12]: 84.8%
